Experimental data taken from ChEMBL document CHEMBL3507680, “University of Dundee, Gates Library screen for HepG2 cell viability”.

test: Human HepG2 cell viability assay in 384 well format; type: toxicity, cell-based; parameters: dose 125 nL, time 70.5 hour; concentration not given beside the values; settings: HepG2 cells, read-out: Inhibition

Row | Structure (SMILES) | cytotoxicity at 70.5 h [%]
1 | CC(C)N1CCC(Cc2cc(-c3cccc(C(=O)O)c3)ncn2)C1 (configuration not stated) | -15
2 | CN(Cc1ccncc1)C1CC2(CCN(c3ncccn3)CC2)C1 | -3.37
3 | c1cc(CNc2nnc(Cc3ccsc3)o2)cs1 | -8.44
4 | O=C1CC[C@H]2[C@H](CCN2c2ccccn2)N1CC1CCOCC1 | -9.84
5 | Cc1ccc(C(=O)N2CCCN(Cc3cccs3)CC2)n1C | -7.93
6 | CN(Cc1cccc(OC(F)(F)F)c1)C(=O)c1cnsn1 | -3.78
7 | COc1nc2c(cc1C(=O)N1CC[C@H](CO)[C@@H](O)C1)CCC2 | -16.1
8 | NC(=O)c1cnc(NC2CCN(C(=O)C3CC3)CC2)c(Cl)c1 | -0.537
9 | Cc1ccc2cc(C3(O)CCN(C(=O)CN4CCCC4)CC3)ccc2n1 | -3.01
10 | CC(=O)N1CCO[C@@H]2CN(S(=O)(=O)c3ccccc3F)C[C@@H]2C1 | -10.2
11 | CCNc1cc2c(nn1)CCN(C(=O)c1cc3cc(C)ccc3o1)C2 | 5.36
12 | Cc1cccc(CN2CCC3(CCC(C(=O)N(C)C)O3)CC2)n1 (configuration not stated) | -9.32
13 | COc1cc(CN(C)C(=O)NCc2cccnc2OC)ccc1SC | -0.299
14 | CC(=O)c1ccc(NC(=O)N[C@H](C(=O)O)C(C)C)cc1 | -6.92
15 | Cc1ccc(CNCC(C)Oc2ccccn2)cc1 (configuration not stated) | -33.7
16 | O=C(NC1CC1)c1ccnc(-c2cc(NCCO)nc3[nH]ccc23)c1 | 21.9
17 | CC(C)c1sc(Br)nc1C(=O)NCc1ccncc1 | 23
18 | COC(=O)c1ccc(S(=O)(=O)N2CCCn3ncnc32)s1 | 0.743
19 | CCN(Cc1ccoc1)C(=O)c1cc2c(c(S(N)(=O)=O)c1)CCC2 | -8.02
20 | Cc1cnn(CCNCc2ccccc2Oc2cccnc2)c1 | 28.3
21 | COc1ccc(NC(=O)Nc2cnc(N3CCN(C)CC3)nc2)cc1Cl | -0.129
22 | Cc1ccc(NS(=O)(=O)c2ccc(C#N)cc2)c(CN(C)C)c1 | -3.45
23 | Cc1ccc(S(=O)(=O)N2CCN(CCCO)CC2)s1 | -2.4

Row | Structure (SMILES) | cytotoxicity at 70.5 h [%]
24 | CC(NCCN1CCN(C(=O)C2CCCC2)CC1)c1nccs1 (configuration not stated) | 7.3
25 | CN(CC1(O)CCCN(Cc2cccc(F)c2F)C1=O)C1CCCCC1 (configuration not stated) | -0.975
26 | CCc1ncnc2c1CCN(Cc1nccs1)CC2 | -7.4
27 | Cc1ncccc1NC(=O)[C@@H]1CCO[C@@H]2CCN(c3ccccc3)C[C@@H]21 | -3.01
28 | COc1ccc(C2CCCN2S(=O)(=O)N(C)CC(C)C)cc1 (configuration not stated) | -1.91
29 | COc1ccc(CN2CCOCC3(CCN(C4CCOCC4)C3)C2)cc1 (configuration not stated) | -5.87
30 | Cc1nc(N2CCOCC2)nc2c1COCC21CCN(CC(C)C)C1 (configuration not stated) | -5.39
31 | COc1ccc(C[C@H]2CN(c3cc(OC)ncn3)CC[C@@H]2OC)cc1 | 4.78
32 | CNCC[C@H]1CC(C)(C)Oc2ccc(C)cc21 | -2.65
33 | CCCc1ccc(CN2CCC3(CCC(=O)N(CCCOC)C3)CC2)o1 | 20.6
34 | Fc1cccc(-c2nnn3c2COC(CNCc2ccsc2)C3)c1 (configuration not stated) | 0.277
35 | CS(=O)(=O)c1ccc(CNc2nccc(C(F)(F)F)n2)cc1 | -1.16
36 | COc1cccc2c1OCC(C(=O)N1CCN(C3CCSCC3)CC1)C2 (configuration not stated) | -7.23
37 | Cn1cncc1CN1CCC2(CC1)CCN2c1ncccn1 | -2.28
38 | O=c1ccc(-c2cccs2)nn1CN1CCOC(c2ccccc2)C1 (configuration not stated) | -21.3
39 | Cc1nn(C)c(Cl)c1CN1CCN(c2nccs2)C(C)C1 (configuration not stated) | 2.61
40 | CC(C)NC(=O)C1CN(C(N)=O)Cc2ccnn2C1 (configuration not stated) | -17.9
41 | COC(=O)N1CCCC(C(=O)Nc2nc(C)c(SC)s2)C1 (configuration not stated) | -9.54
42 | Nc1ncccc1C(=O)NCc1ccc(Br)cc1 | -2.61
43 | CCO[C@H]1CN(CC2CCOCC2)[C@@H]2CCCO[C@H]12 | 9.78
44 | CCC(=O)N1CCC(c2nc3c(c(NC)n2)CN(C)CC3)C1 (configuration not stated) | -9.93
45 | N#Cc1ccccc1OCCN1CCC(C(=O)N2CCOCC2)CC1 | -9.69
46 | CCOc1cccc(NS(=O)(=O)c2cc(C(=O)O)cs2)c1 | -11.8

Row | Structure (SMILES) | cytotoxicity at 70.5 h [%]
47 | CCN(C)Cc1nc(-c2ccccc2NS(C)(=O)=O)oc1C | -10.5
48 | Cc1nc(N)cc(NCc2csc(N(C)C)n2)n1 | -4.3
49 | Cc1cc(CN(C)Cc2cc3c(cc2OC(F)F)OCO3)on1 | -6.95
50 | CCS(=O)(=O)N[C@@H]1CN(Cc2cc(C)on2)C[C@@H]2CCCO[C@@H]21 | -10.1
51 | CC(C)c1ccc(OCCC(=O)N2CCCC(C(N)=O)C2)cc1 (configuration not stated) | -5.32
52 | Cc1nn(C)c(C)c1CN(C)C(=O)c1cc(C(F)(F)F)n(C)n1 | -5.06
53 | CC(C)n1cnnc1C1CCCN(C(=O)COCc2ccccc2)C1 (configuration not stated) | -5.17
54 | O=C(CNC(=O)N1CCc2c([nH]c3ccc(Cl)cc23)C1)NC1CCCC1 | -0.711
55 | Cc1noc(C2CCC3(CCN(C(=O)c4cnccn4)CC3)O2)n1 (configuration not stated) | 3.99
56 | CCCOCCN1CCC2(CC1)CC(c1ccccc1)C(=O)N2C (configuration not stated) | 25.1
57 | NC(C(=O)N1CCSc2ccccc2C1)c1ccccc1 (configuration not stated) | 2.56
58 | CS(=O)(=O)NC[C@@H]1OC[C@H]2CN(C(=O)c3ccccn3)CC[C@H]21 | -3.81
59 | Cc1ccc(CNc2cnn(CC(F)F)c2)cc1C | -0.638
60 | Cc1ccc(CC(=O)N(C)CC2(O)CCCN(c3ccccn3)C2)s1 (configuration not stated) | -5.95
61 | NC(=O)c1cc(NC(=O)N2CCOCC2)ccc1F | 9.19
62 | O=C1C[C@H]2CC[C@@H](CN1)N2C1CSCCSC1 | 17.4
63 | COCCN(Cc1cccs1)c1nc(CCN)nc2ccccc12 | -9.93
64 | C/C=C(\C)CN1C[C@H](NC(=O)c2cc[nH]c2C)[C@@H](C2CC2)C1 | 10.6
65 | CN(C)C(=O)Cc1nc(CN2CCCC2Cn2cncn2)cs1 (configuration not stated) | -10.9
66 | Cc1nc2c(c(C)c1CC(=O)NCc1cccc(C#N)c1)c(=O)[nH]n2C | -2.99
67 | CC1CN(CC(=O)NC(=O)NCc2ccccc2)CCO1 (configuration not stated) | 7.19
68 | CNC(=O)[C@H]1C[C@@H]2CN(S(=O)(=O)c3cccc(F)c3)C[C@@H]2N1C | 1.47
69 | CN1C(=O)CC2(CCN(Cc3cnn(C)c3)CC2)c2ccccc21 | -2.77

Row | Structure (SMILES) | cytotoxicity at 70.5 h [%]
70 | CCCC(C)NC(=O)CCN1C(=O)CCc2cc(F)ccc21 (configuration not stated) | 2.38
71 | Cc1cccc(NC(=O)N2CCCn3cnc(CN(C)C(C)C)c3C2)c1 | 17.2
72 | O=C(NCC1CCC2(CCNCC2)CO1)c1ccno1 (configuration not stated) | 3.09
73 | Fc1cnc(N2CCCC3(CN(Cc4cccs4)CCO3)C2)nc1 (configuration not stated) | 2.35
74 | CC(OCC1CC1)C(=O)N1CCCN(c2nc3ccccc3[nH]2)CC1 (configuration not stated) | -3.86
75 | CCCC1c2cccn2CCN1C(=O)Cn1cnc2sc(C)cc2c1=O (configuration not stated) | -12.3
76 | COCCc1noc(CN2CCCc3cccc(OC)c32)n1 | -4.64
77 | Cn1nccc1C(=O)N1CCCC1c1ccc(C(=O)N2CCOCC2)s1 (configuration not stated) | 0.297
78 | COc1cc(N2C[C@H]3CN(C(=O)c4cccnc4)C[C@H]3C2)ncn1 | -2.8
79 | O=C1C[C@H]2CC[C@@H](CN1)N2C(=O)CCCc1ccc(Cl)cc1 | -7.24
80 | CCCNC(=O)C[C@@H]1CCN(C(=O)c2cccnc2)C[C@@H]1CC | 12.5
81 | c1cnnc(N2CCCC2CNCc2nc3ccccc3o2)c1 (configuration not stated) | -9.74
82 | CN1CCN(C(=O)C2(S(C)(=O)=O)CCCC2)Cc2ccccc21 | -13.4
83 | Cc1cnn(C2CCCN(C(=O)c3sccc3C#N)C2)c1 (configuration not stated) | 28.7
84 | Cn1cnc2c1C(COCC1CC1)CN(C(=O)c1cccs1)C2 (configuration not stated) | 8.88
85 | CC(=O)N1CCCN(c2nccc(-c3c(C)nn(C)c3C)n2)CC1 | -3.87
86 | c1ccc(CN2CC[C@H]3CO[C@H](CNc4ncccn4)[C@H]3C2)cc1 | -5.27
87 | COc1ccccc1C1(CNCc2ccc([S+](C)[O-])cc2)CC1 (configuration not stated) | -6.54
88 | CN(CCc1ccccc1)Cc1cc(C(=O)N2CCN(C)C(=O)C2)no1 | -14.7
89 | c1cncc(-c2noc(CN3CCCC(Cn4cncn4)C3)n2)c1 (configuration not stated) | 9.23
90 | Cc1ccc(Br)cc1NC(=O)NC1CCC2(C1)OCCO2 (configuration not stated) | 18.1
91 | Cc1nccn1-c1cccc(C2CCCN(C3CCCCC3)C2)n1 (configuration not stated) | 2.4
92 | CN(C)c1cc(C(F)(F)F)cc(-c2ccc(C(=O)O)cc2)n1 | -6.98

Row | Structure (SMILES) | cytotoxicity at 70.5 h [%]
93 | Cn1cc(C(=O)O)c(-c2ccc(F)cc2F)n1 | -4.16
94 | O=C(c1ccoc1)N1CC[C@H]2C[C@@H](c3ccncn3)O[C@@H]2C1 | 4.08
95 | O=C(Cc1ccc(F)cc1)NCCc1ccoc1 | -5.69
96 | COc1ncccc1CN1CC[C@]2(C[C@@H](OCc3ccccn3)CO2)C1 | -13.8
97 | c1cncc(-c2ncnc3c2CCN(Cc2cccs2)CC3)c1 | 16.4
98 | O=C(c1cccnc1)N1Cc2nccn2CC(COc2cccnc2)C1 (configuration not stated) | -15.2
99 | CC(C)(C)C(=O)N1CCC2(CC1)CC(Oc1ccccc1)CO2 (configuration not stated) | 11.5
100 | c1cc(CN2CCCn3cnc(COCC4CC4)c3C2)co1 | -8.86
101 | COC1CCCN(Cc2nc(Cc3ccccc3F)no2)C1 (configuration not stated) | -5.83
102 | c1cc(-c2noc(CN3CCn4c(nnc4C4CC4)C3)n2)cs1 | -19.2
103 | O=C(NCc1cccnc1N1CCCCC1)c1cccs1 | -3.28
104 | c1cncc(-c2c[nH]c([C@@H]3COCCN3Cc3ccncc3)n2)c1 | 1.27
105 | CCN(Cc1ccc(S(C)(=O)=O)cc1)Cc1nc(COC)no1 | -11.1
106 | Cc1ccc(C(=O)NCCCC2(C3OCCO3)CCOCC2)cc1C | 1.93
107 | CCn1cnnc1C1CCN(C(=O)COc2ccccc2)CC1 | -9.36
108 | CNc1cc(C)nc(C2CN(Cc3ccc(C)nc3)CCO2)c1 (configuration not stated) | -9.06
109 | CCn1cc2c(n1)C(COC)CN(c1ccc(C)nn1)C2 (configuration not stated) | -7.13
110 | CCN1CC(C(=O)NC(C)(C)C(=O)OC)CC1=O (configuration not stated) | 3.17
111 | CC1(C)[C@H](Cc2cc(CN3CCCCC3)on2)C[C@@H]1NS(C)(=O)=O | -4.26
112 | O=c1c2c(ncn1CCCO)nc1n2CCC1 | -1.36
